These results are taken from patent US20180327367A1, “MACROCYCLIC BROAD SPECTRUM ANTIBIOTICS” (priority 2015, published 2018).

In brackets after ≈: the same amount, converted by molar mass. Like-named read-outs stand apart in the source and are kept apart here.

Holding throughout (assay type): cell-based
Assay [1] concerns Methicillin Resistant Staphylococcus aureus strain USA 300, NRS384. Description: Minimum inhibitory concentration, broth micro-dilution (CLSI), S. aureus. The following applies: 35° C., 22 hours; for MIC: Staphylococcus aureus, MRSA / NRS 384 / USA300, 22 h. On the procedure:
(§1) In vitro antimicrobial activity of each compound was determined by measuring minimal inhibitor concentrations (MICs) using the broth micro-dilution technique as approved by the Clinical and Laboratory Standards Institute (CLSI) (Methods for Dilution Antimicrobial Susceptibility Tests for Bacteria that Grow Aerobically; Approved Standard—Eighth Edition. CLSI document M07-A8. Wayne, Pa.: Clinical and Laboratory Standards; 2009). Antibacterial activity was measure against three strains of bacteria: a Methicillin Resistant Staphylococcus aureus strain USA 300, NRS384 (S. aureus); a strain of Escherichia coli MC4100 harboring the IMP4213 (E. coli IMP), which results in increased outer-membrane permeability (B Martin and Silhavy T. Imp/OstA is required for cell envelope biogenesis in Escherichia coli. (2002) Molecular Microbiology, 45(5), 1289-1302), and Escherichia coli ATCC 25922 (E. coli), a clinically relevant Gram-negative strain. Cells were inoculated onto plates of Trypyticase Soy Agar or Luria Agar respectively and grown at 35° C. for 20 hours. Inocula suspensions were prepared by scraping cells into 1 mL of testing media (cation adjusted Mueller Hinton Broth supplemented with 0.002% v/v Tween-80) and diluting to a final OD600 nm of 0.01.
(§2) Test compounds were prepared in DMSO at a concentration of 10 mg/mL. […] In protocol 2, the compound stocks were diluted into testing media at a concentration of 4 μg/mL and serial 2-fold dilutions were made in the same media, in 96-well U bottom microtiter dishes, for a total of 10 compound concentrations. In protocol 3, compound stocks were diluted into testing media at a concentration of 0.5 μg/mL, with serial 2-fold dilutions conducted as described above. […] Inocula suspensions were added to the 2-fold serial dilutions of test compounds to a final density of OD OD600 nm of 0.0005 and incubated at 35° C. for 22 hours.

For assay [2], the system named is Escherichia coli MC4100 harboring the IMP4213 (E. coli IMP). Nature of the assay: microbe, parasite or virus in culture. The following applies: Escherichia coli, 22 h, read-out: MIC (μg/mL) E. coli IMP, E. coli MC4100 IMP4213, increased outer-membrane permeability; 35° C., 22 hours. On the procedure:
as §1, §2

In assay [3] the test system is Escherichia coli ATCC 25922. Description: Minimum inhibitory concentration, broth micro-dilution (CLSI), E. coli. As to conditions: Escherichia coli, ATCC25922, 22 h, 35° C., 22 hours. As for the experimental part:
Cells were inoculated onto plates of Trypyticase Soy Agar or Luria Agar respectively and grown at 35° C. for 20 hours. Inocula suspensions were prepared by scraping cells into 1 mL of testing media (cation adjusted Mueller Hinton Broth supplemented with 0.002% v/v Tween-80) and diluting to a final OD600 nm of 0.01.
as §2

The mark [4] stands for this setting: MRSA USA 300 NRS384, read-out: MIC (μg/mL) S. aureus.
The mark [5] stands for this setting: E. coli ATCC 25922, read-out: MIC (μg/mL) E. coli.
[6] abbreviates: read-out: MIC (μg/mL) S. aureus, MRSA USA 300 NRS384.
The mark [7] stands for this setting: read-out: MIC (μg/mL) E. coli, E. coli ATCC 25922.

As to `CCCCCCCCc1ccc(C(=O)N[C@@H](CCC(=O)NC)C(=O)N(C)[C@@H]2C(=O)N[C@@H](C)C(=O)N[C@H](C(=O)NCC#N)Cc3ccc(OCCN)c(c3)-c3cc2ccc3OCCN)c(C)c1` [Compound 501], the MIC is 0.38 µg/mL (≈ 0.418 µM) in assay [1] (setting [4]), greater than 0.13 µg/mL in assay [2] and 16 µg/mL (≈ 17.6 µM) in assay [3] (setting [5]).
In the same order, the values of `CCCCCCc1ccc(C(=O)N[C@@H](CCN)C(=O)N(C)[C@@H]2C(=O)N[C@@H](C)C(=O)N[C@H](C(=O)NCC#N)Cc3ccc(O)c(c3)-c3cc2ccc3O)c(C)c1` [Compound 466] are 0.25 µg/mL (≈ 0.332 µM), 0.063 µg/mL (≈ 0.0836 µM) and 64 µg/mL (≈ 84.9 µM).
On the same counts, the results for `CCCCCCc1ccc(C(=O)N2CCC(N)C[C@H]2C(=O)N(C)[C@@H]2C(=O)N[C@@H](C)C(=O)N[C@H](C(=O)NCC#N)Cc3ccc(OCCN)c(c3)-c3cc2ccc3OCCN)c(C)c1` (some centres unmarked) [Compound 526-3] are 0.063 µg/mL (≈ 0.0727 µM), 0.031 µg/mL (≈ 0.0358 µM) and 3 µg/mL (≈ 3.46 µM).
With `CCCCCCCCCC(=O)N[C@@H](C)C(=O)NCC(=O)N[C@@H](CCN)C(=O)N(C)[C@@H]1C(=O)N[C@@H](C)C(=O)N[C@H](C(=O)NCC#N)Cc2ccc(OCCN)c(c2)-c2cc1ccc2OCCN` [Compound 363], the MIC in assay [1] (setting [6]) came out at 0.25 µg/mL (≈ 0.272 µM); in assay [2], 0.5 µg/mL (≈ 0.543 µM); in assay [3] (setting [7]), 64 µg/mL (≈ 69.6 µM).
For `CCCCc1ccc(C(=O)N[C@@H](CCN)CC(=O)N(C)[C@@H]2C(=O)N[C@@H](C)C(=O)N[C@H](C(=O)NCC#N)Cc3ccc(OCCN)c(c3)-c3cc2ccc3OCCN)c(C)c1` [Compound 511], the MIC in assay [1] (setting [4]) was 1.5 µg/mL (≈ 1.82 µM); in assay [2] it was 1 µg/mL (≈ 1.21 µM); in assay [3] (setting [5]), greater than 64 µg/mL.
In the same order, the values of `Cc1cc(-c2ccc(CC(C)C)cc2)ccc1C(=O)N[C@@H](CC(N)=O)C(=O)N(C)[C@@H]1C(=O)N[C@@H](C)C(=O)N[C@H](C(=O)NCC#N)Cc2ccc(OCCN)c(c2)-c2cc1ccc2OCCN` [Compound 240] are 0.19 µg/mL (≈ 0.211 µM), 0.094 µg/mL (≈ 0.104 µM) and 1.5 µg/mL (≈ 1.66 µM).
As for `CCCCCCCCCC(=O)NCCC(=O)NCCC(=O)N[C@@H](CCN)C(=O)N(C)[C@@H]1C(=O)N[C@@H](C)C(=O)N[C@H](C(=O)NCC#N)Cc2ccc(OCCN)c(c2)-c2cc1ccc2OCCN` [Compound 376], the MIC is 0.5 µg/mL (≈ 0.535 µM) in assay [1] (setting [4]), 2.3 µg/mL (≈ 2.46 µM) in assay [2] and greater than 64 µg/mL in assay [3] (setting [5]).
As to `CCCCCCc1ccc(C(=O)N[C@@H]2CN[C@H](C(=O)N(C)[C@@H]3C(=O)N[C@@H](C)C(=O)N[C@H](C(=O)NCC#N)Cc4ccc(OCCN)c(c4)-c4cc3ccc4OCCN)C2)c(C)c1` [Compound 498], the results for the MIC in assay [1] (setting [4]), in assay [2] and in assay [3] (setting [5]) were 0.5 µg/mL (≈ 0.587 µM), 1 µg/mL (≈ 1.17 µM) and 16 µg/mL (≈ 18.8 µM), respectively.
In the same order, the values of `C[C@@H]1NC(=O)[C@@H](N(C)C(=O)[C@H](CCCCN)NC(=O)c2ccc(-c3ccc(Cl)cc3)cc2)c2ccc(O)c(c2)-c2cc(ccc2O)C[C@@H](C(=O)N[C@H](C#N)CO)NC1=O` [Compound 418] are 4 µg/mL (≈ 4.85 µM), greater than 4 µg/mL and greater than 64 µg/mL.
In the same order, the values of `CCCCCCc1ccc(-c2ncc(C(=O)N[C@@H](CCN)C(=O)N(C)[C@@H]3C(=O)N[C@@H](C)C(=O)N[C@H](C(=O)NCC#N)Cc4ccc(OCCN)c(c4)-c4cc3ccc4OCCN)n2C)cc1` [Compound 507] are 0.031 µg/mL (≈ 0.0342 µM), 0.016 µg/mL (≈ 0.0177 µM) and 0.75 µg/mL (≈ 0.828 µM).
For the compound `CCCCCCCCc1ccc2c(=O)n([C@@H](CCN)C(=O)N(C)[C@@H]3C(=O)N[C@@H](C)C(=O)N[C@H](C(=O)NCC#N)Cc4ccc(OCCN)c(c4)-c4cc3ccc4OCCN)cnc2c1` [Compound 486], the MIC in assay [1] (setting [6]) turned out to be 0.094 µg/mL (≈ 0.107 µM); in assay [2] it was 0.13 µg/mL (≈ 0.148 µM); in assay [3] (setting [7]), 3 µg/mL (≈ 3.41 µM).
Take `C[C@@H]1NC(=O)[C@@H](N(C)C(=O)[C@H](CCN)NC(=O)c2cccc3ccccc23)c2ccc(OCCN)c(c2)-c2cc(ccc2OCCN)C[C@@H](C(=O)NCC#N)NC1=O` [Compound 492]: the “MIC (μg/mL) S. aureus” value in assay [1] (MRSA USA 300 NRS384) came out at 3 µg/mL (≈ 3.79 µM). Besides, the MIC in assay [1] (setting [4]) was 2 µg/mL (≈ 2.53 µM).
